Test results taken from patent US11298344B2, “Composition for inhibiting sodium leak channel (NALCN), comprising n-benzhydryl quinuclidine derivatives” (Research & Business Foundation Sungkyunkwan University, priority 2018, dated 2022).

How the values were obtained:
Type in all cases: cell-based
[1] = molecular target: T1, NALCN (Rattus norvegicus, UniProt Q6Q760); test: Patch-clamp of HEK293T cells transfected with M3R and NALCN, CCh-induced inward current; settings: for compound concentration which decreases half of a NALCN current (rank order): CCh-induced current; for inhibitory effect on a CCh-induced NALCN current: FIG. 6; for activation of NALCN by CCh in the presence of the compound: compound present before CCh
T1 construct: expressed in transfected cells; host or cells: HEK293T
Experimental: (§1) HEK293T cells were cultured in a DMEM ([…]) medium containing 10% FBS and 1% antibiotics using an incubator having a condition of 37° C. and 5% CO2. NALCN and TRPC cDNAs were respectively constructed using a vector that expresses GFP under an independent promoter. Lipofectamine 2000, which is used as a transfection reagent, was mixed with each plasmid and the cells were treated with the mixture. Then, after 48 hours, expression was identified. In order to identify whether normal transfection with each plasmid occurred, only the cells in which GFP was expressed were selected.
(§2) The HEK293T cells were transfected with combinations of M3R and NALCN, M3R and GFP, and M3R and TRPCs.
Among the transfected HEK293T cells acquired in Experimental Method 2, cells expressing GFP were selected, and a patch pipette formed of a thin glass tube was inserted into a membrane surface. After setting −80 mV as a holding potential, a current was measured. Under the holding potential, treatment with carbachol (CCh) which is an activator of M3R was performed to identify a current induced by NALCN. An extracellular solution was treated with 50 μM of L703606, and change of current caused by CCh was identified. In addition, based on voltage-independent characteristics of NALCN, currents obtained by varying the voltage from −80 mV to +10 mV were measured, and change of current caused by the treatment with L703606 was recorded. All data were presented as mean±standard deviation calculated after treatment with an inhibitor relative to a control (** P<0.01).
HEK293T cells are non-neuronal cells commonly used for transfection of genes. Based on the report that a NALCN channel is activated by M3R in pancreatic beta cells MIN6 and HEK293 cells, M3R and NALCN plasmids that had been cloned from rat brain were co-transfected into HEK293T cells to identify whether L703606 inhibits a NALCN current activated by M3R.

[2] = molecular target: T2, NALCN (Mus musculus, UniProt Q8BXR5); test: Patch-clamp of isolated midbrain dopaminergic neurons (background and NT-induced currents, membrane voltage)
T2 construct: from tissue; host or cells: acutely isolated dopaminergic neurons of mouse substantia nigra pars compacta (TH-GFP mice)
Experimental: In order to obtain midbrain dopaminergic neurons from mice, substantia nigra pars compacta within mouse midbrain in which GFP was expressed due to tyrosine hydroxylase (TH) promoter was cut into sections. In order to isolate tissue, the sections were subjected to treatment with a highly-concentrated glucose solution at 36.5° C. which contains papain (4 U ml-1) for 20 minutes or longer. The enzymatically-treated sections of substantia nigra pars compacta were washed with a highly-concentrated glucose solution, and then slowly agitated using Pasteur pipettes with various size holes so that the respective dopaminergic neurons were isolated. All animal experiments were conducted under approval of the Institutional Animal Care and Use Committee (IACUC) of Sungkyunkwan University School of Medicine.
Among the dopaminergic neurons isolated in Experimental Method 1, dopaminergic neurons expressing GFP were selected, and a patch pipette formed of thin glass tube was inserted into a membrane surface. After setting −60 mV as a holding potential, a current was measured. A background current was identified under the holding voltage. After treatment with NT, a current was identified. Then, additionally, an extracellular solution was treated with 10 μM of L703606, and change of current was identified. In addition, the above procedure was repeated by replacing sodium ion with N-methyl-D-glucamine (NMDG). After treating the extracellular solution with 0.5 μM of tetrodotoxin (TTX) and 30 μM of ZD7288 which are a voltage-gated sodium channel inhibitor and an HCN channel inhibitor, respectively, a voltage was measured. Additionally, change of voltage at the time of treatment with 10 μM of L703606 was identified. All data were presented as mean±standard deviation calculated at the time of treatment with the inhibitors and replacement of sodium ion, relative to a control. (* P<0.05, ** P<0.01, *** P<0.001).
In addition, it was possible to identify that at the time of replacing sodium with NMDG, the background current was close to 0 pA, and an inward current was not induced by the treatment with NT. From this, it can be seen that the background current is generated by sodium ions.

[3] = test system: transient receptor potential canonical (TRPC) 3, 4, 5, 6, or 7 channel; test: Patch-clamp of HEK293T cells transfected with M3R and a TRPC channel, CCh-induced inward current; settings: holding potential −60 mV, second CCh stimulus, Na+ and K+ removed, cesium added
Experimental: as §1, §2
From the above, it was possible to identify NALCN inhibitory effects of the NBQN derivatives. Furthermore, in the present example, it was intended to identify whether the NBQN derivatives have specific and exclusive inhibitory activity against NALCN. […]

[4] = holding potential −60 mV, 10 μM of L703606
[5] = holding potential −60 mV, 20 μM of PP1

T1 sequence (Q6Q760 whole entry): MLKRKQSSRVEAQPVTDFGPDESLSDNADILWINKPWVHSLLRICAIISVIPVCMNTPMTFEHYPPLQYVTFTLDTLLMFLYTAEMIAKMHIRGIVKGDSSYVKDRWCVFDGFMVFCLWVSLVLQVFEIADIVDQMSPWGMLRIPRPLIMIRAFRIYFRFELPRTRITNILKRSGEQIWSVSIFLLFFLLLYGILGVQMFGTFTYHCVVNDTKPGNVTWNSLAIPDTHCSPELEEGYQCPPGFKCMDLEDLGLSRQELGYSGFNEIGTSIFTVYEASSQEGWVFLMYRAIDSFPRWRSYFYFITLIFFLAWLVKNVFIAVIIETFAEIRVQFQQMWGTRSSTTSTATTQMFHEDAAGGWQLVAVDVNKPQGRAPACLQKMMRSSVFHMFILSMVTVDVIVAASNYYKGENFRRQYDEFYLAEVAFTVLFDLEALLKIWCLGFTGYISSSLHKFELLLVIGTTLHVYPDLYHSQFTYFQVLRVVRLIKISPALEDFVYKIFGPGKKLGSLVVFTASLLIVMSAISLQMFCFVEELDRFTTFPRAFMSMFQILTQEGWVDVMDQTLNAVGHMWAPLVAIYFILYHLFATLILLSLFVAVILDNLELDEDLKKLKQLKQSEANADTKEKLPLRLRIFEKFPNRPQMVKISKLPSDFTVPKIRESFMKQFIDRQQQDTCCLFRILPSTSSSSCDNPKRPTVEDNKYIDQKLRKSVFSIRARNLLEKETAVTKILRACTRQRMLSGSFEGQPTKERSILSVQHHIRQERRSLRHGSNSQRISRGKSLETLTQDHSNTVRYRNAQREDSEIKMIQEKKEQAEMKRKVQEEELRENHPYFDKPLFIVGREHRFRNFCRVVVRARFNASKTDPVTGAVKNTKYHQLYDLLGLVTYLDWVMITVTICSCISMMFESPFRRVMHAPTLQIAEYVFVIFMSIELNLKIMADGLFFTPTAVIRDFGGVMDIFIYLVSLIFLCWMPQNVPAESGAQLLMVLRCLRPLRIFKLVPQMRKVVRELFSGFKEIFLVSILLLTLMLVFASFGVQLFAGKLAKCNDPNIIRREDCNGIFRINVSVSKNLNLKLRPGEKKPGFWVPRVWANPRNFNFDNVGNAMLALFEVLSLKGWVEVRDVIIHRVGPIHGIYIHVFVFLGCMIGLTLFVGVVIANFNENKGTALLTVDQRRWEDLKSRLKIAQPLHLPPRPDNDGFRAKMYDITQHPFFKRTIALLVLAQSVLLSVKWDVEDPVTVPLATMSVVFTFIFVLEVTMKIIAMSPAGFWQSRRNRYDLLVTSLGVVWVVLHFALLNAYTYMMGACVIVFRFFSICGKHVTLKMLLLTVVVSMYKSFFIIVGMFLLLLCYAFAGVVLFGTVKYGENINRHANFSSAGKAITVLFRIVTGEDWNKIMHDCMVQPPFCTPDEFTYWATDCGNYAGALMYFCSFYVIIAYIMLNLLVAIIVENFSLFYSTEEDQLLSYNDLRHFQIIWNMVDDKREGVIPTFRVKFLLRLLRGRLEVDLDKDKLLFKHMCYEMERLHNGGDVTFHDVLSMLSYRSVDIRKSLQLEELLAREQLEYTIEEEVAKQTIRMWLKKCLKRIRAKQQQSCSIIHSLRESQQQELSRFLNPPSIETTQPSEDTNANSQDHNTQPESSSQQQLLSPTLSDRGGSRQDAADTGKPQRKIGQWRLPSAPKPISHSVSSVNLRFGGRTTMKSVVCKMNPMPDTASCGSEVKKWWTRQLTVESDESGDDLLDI

COc1ccccc1CNC1C2CCN(CC2)C1C(c1ccccc1)c1ccccc1 (centres unmarked) [CP96345, 2-(Diphenylmethyl)-N-(2-methoxybenzyl)quinuclidin-3-amine]
compound concentration which decreases half of a NALCN current (rank order) ([1]; M3R-NALCN HEK293T cells): next highest inhibitory effects | inhibitory effect on a CCh-induced NALCN current ([1]; M3R-NALCN HEK293T cells): inhibit a CCh-induced NALCN current in a similar fashion

COc1ccccc1CN[C@H]1CCCN[C@H]1c1ccccc1 [CP99994, (2S,3S)-N-[(2-methoxyphenyl)methyl]-2-phenylpiperidin-3-amine]
inhibitory effect on a CCh-induced NALCN current ([1]; M3R-NALCN HEK293T cells): insignificant inhibitory effect

Ic1ccccc1CNC1C2CCN(CC2)C1C(c1ccccc1)c1ccccc1 (centres unmarked) [L703606, 2-(Diphenylmethyl)-N-(2-iodobenzyl)quinuclidin-3-amine]
inhibition at 50 µM ([1]; HEK-293T, cells that co-express M3R-NALCN, holding potential −80 mV, 50 μM of L703606): ≥ 90% | CCh-induced inward current in the presence of PP1, after treatment with L703606 ([1]; M3R-NALCN HEK293T cells): returning to the background current again immediately | compound concentration which decreases half of a NALCN current (rank order) ([1]; M3R-NALCN HEK293T cells): highest inhibitory effect | inhibitory effect on a CCh-induced NALCN current ([1]; M3R-NALCN HEK293T cells): inhibit a CCh-induced NALCN current in a similar fashion | activation of NALCN by CCh in the presence of the compound ([1]; M3R-NALCN HEK293T cells): not possible to observe activation of NALCN | CCh-induced NALCN current where voltage is changed ([1]; voltage from −80 mV to +10 mV): decreased to a control level | spontaneous activity voltage ([2]; 10 μM of L703606): completely inhibited | background current [2, 4]: decreased | inward current induced by NT [2, 4]: not induced | membrane potential ([2]; spontaneous activity stopped by 0.5 μM TTX and 30 μM ZD7288, 10 μM of L703606): induced hyperpolarization of membrane potential

COc1ccc(C(C)(C)C)cc1CN[C@H]1C2CCN(CC2)[C@H]1C(c1ccccc1)c1ccccc1 [Maropitant, (2S,3S)-2-(Diphenylmethyl)-N-[2-methoxy-5-(2-methyl-2-propanyl)benzyl]quinuclidin-3-amine]
compound concentration which decreases half of a NALCN current (rank order) ([1]; M3R-NALCN HEK293T cells): next highest inhibitory effects | inhibitory effect on a CCh-induced NALCN current ([1]; M3R-NALCN HEK293T cells): inhibit a CCh-induced NALCN current in a similar fashion

Cc1ccc(-c2nn(C(C)(C)C)c3ncnc(N)c23)cc1 [PP1]
activation of NALCN by CCh in the presence of the compound ([1]; M3R-NALCN HEK293T cells): strong inward current induced by activation of NALCN | inhibition of the CCh-induced inward current ([1]; cells that co-express M3R-NALCN, treatment with PP1): did not greatly inhibit | background current [2, 5]: little effect on the background current | inward current induced by NT stimulus [2, 5]: remarkably decreased

COc1ccc(CCCOC(Cn2ccnc2)c2ccc(OC)cc2)cc1 (centres unmarked) [SKF96365]
CCh-induced inward current (TRPC current activated by M3R) [3]: not created at all
